This assay has as its target T1, AR protein in VCaP cells (Homo sapiens, UniProt P10275).
T1 construct: endogenous in cells; host or cells: VCaP cells
T1 sequence (P10275 1-920): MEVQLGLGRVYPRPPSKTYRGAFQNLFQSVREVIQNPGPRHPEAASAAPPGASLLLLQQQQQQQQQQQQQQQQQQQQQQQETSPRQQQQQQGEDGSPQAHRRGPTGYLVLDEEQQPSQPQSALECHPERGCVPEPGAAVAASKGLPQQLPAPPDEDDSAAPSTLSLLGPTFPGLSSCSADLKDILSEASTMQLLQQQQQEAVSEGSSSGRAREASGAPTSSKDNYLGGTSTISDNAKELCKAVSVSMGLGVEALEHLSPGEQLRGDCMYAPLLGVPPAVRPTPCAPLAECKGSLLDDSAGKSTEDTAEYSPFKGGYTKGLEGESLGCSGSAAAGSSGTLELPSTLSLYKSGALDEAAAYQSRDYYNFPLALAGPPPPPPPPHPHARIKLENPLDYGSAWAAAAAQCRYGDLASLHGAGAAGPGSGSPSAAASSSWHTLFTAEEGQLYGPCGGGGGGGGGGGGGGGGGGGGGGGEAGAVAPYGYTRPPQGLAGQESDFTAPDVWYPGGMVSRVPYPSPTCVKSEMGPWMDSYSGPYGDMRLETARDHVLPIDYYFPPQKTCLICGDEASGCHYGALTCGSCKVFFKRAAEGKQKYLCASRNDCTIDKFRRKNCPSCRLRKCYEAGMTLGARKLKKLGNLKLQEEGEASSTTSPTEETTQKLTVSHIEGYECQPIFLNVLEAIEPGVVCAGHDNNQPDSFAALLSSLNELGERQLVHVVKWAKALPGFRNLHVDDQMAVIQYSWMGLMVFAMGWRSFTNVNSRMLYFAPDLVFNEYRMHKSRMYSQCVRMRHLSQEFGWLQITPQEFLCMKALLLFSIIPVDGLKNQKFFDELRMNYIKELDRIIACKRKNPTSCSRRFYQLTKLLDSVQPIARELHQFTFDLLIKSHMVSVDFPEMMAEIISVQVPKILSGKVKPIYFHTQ
The assay is described as follows: VCAP AR Degradation Assay (AR ELISA, 24 h). The class given is cell-based. The following applies: for Y (lowest measured AR level normalized to DMSO control): AR degradation efficiency; for DC50: concentration of compound when AR level = 50% of DMSO control, read-out: DC50. On the procedure: VCAP AR Degradation Assay.
Test compounds were pre-dispensed into a Corning CellBind 96-well clear bottom plate (Cat #3300) using an acoustic dispenser to make a 10-point concentration series at 1:3 dilution for each compound. The final top concentration of each compound was […]. DMSO at a final concentration of 0.1% was used as a control. VCaP cells cultured in DMEM with 8% fetal bovine serum (FBS) were seeded at 50K cells per well in a 200 μL volume into the compound plate and incubated at 37° C. in a CO2 incubator for 24 h. The medium was carefully removed from the cells and the plate was placed on ice. One hundred […] of ice-cold 1× cell lysis buffer from Cell Signaling Technologies (Cat #9803) was added to each well of the cells and the plate was incubated at 4° C. on a shaker for 1 h. Fifteen […] of cell lysate was used for AR ELISA detection using a PathScan Total Sandwich AR ELISA kit (Cell Signaling Technology, Cat #12580). AR levels in compound-treated wells were normalized to that of DMSO control and expressed as percent of control (PoC) (y). A Four Parameter Logistic Model (Sigmoidal Dose-Response Model) was used to determine the compound's DC50, and EC50, using the following equation: y=(A+((B−A)/(1+((C/x)^D)))) • A=YMin (lowest AR level normalized to DMSO control in response to compound • treatment, as determined by curve fit) • B=YMax (maximum AR level as determined by curve fit) • C=EC50 • D=Hill Slope • x=compound concentration • EC50=the concentration of compound when y=(YMax−YMin)/2 • DC50=the concentration of the compound when y=50% of DMSO control (50% AR degradation) • y=AR protein level normalized to DMSO control
The lowest measured AR level normalized to DMSO control in response to compound treatment, termed Y value, was used to characterize the compound-mediated AR degradation efficiency.
(ELISA stands for enzyme-linked immunosorbent assay.)

Consider twelve compounds from patent US11325889B2, “Substituted 3-((3-aminophenyl)amino)piperidine-2,6-dione compounds, compositions thereof, and methods of treatment therewith” (Celgene Corporation, priority 2018, dated 2022).

Where only a bound is given, the exact number is not on record here.

By DC50 is commonly meant the concentration at which degradation of the target reaches its halfway point. Turning to `CCc1cc(N2C(=S)N(c3cnc(C#N)c(C(F)(F)F)c3)C(=O)C2(C)C)ccc1OCCC1CCN([C@H](C)C(=O)Nc2cc(Cl)cc(NC3CCC(=O)NC3=O)c2)CC1` (stereo partly drawn) [Cmpd 25, (2R)-N-(3-chloro-5-(2,6-dioxopiperidin-3-ylamino)phenyl)-2-(4-(2-(4-(3-(6-cyano-5-(trifluoromethyl)pyridin-3-yl)-5,5-dimethyl-4-oxo-2-thioxoimidazolidin-1-yl)-2-ethylphenoxy)ethyl)piperidin-1-yl)propanamide], the “Y (lowest measured AR level normalized to DMSO control)” value is “* (0<Y<=25%)” and the DC50 is below 100 nM.

Take `CCc1cc(N2C(=S)N(c3ccc(C#N)c(C(F)(F)F)c3)C(=O)C2(C)C)ccc1OCCC1CCN([C@@H](C)C(=O)Nc2cc(Cl)cc(NC3CCC(=O)NC3=O)c2)CC1` (stereo partly drawn) [Cmpd 26, (2S)-N-(3-chloro-5-(2,6-dioxopiperidin-3-ylamino)phenyl)-2-(4-(2-(4-(3-(4-cyano-3-(trifluoromethyl)phenyl)-5,5-dimethyl-4-oxo-2-thioxoimidazolidin-1-yl)-2-ethylphenoxy)ethyl)piperidin-1-yl)propanamide]: the “Y (lowest measured AR level normalized to DMSO control)” value is reported as “* (0<Y<=25%)” and the half-maximal degradation concentration (DC50) fell in the range of 100 to 500 nM.

With `CCc1cc(N2C(=S)N(c3cnc(C#N)c(C(F)(F)F)c3)C(=O)C23CCC3)ccc1OCCC1CCN(CC(=O)Nc2cc(Cl)cc(NC3CCC(=O)NC3=O)c2)CC1` (stereo not drawn) [Cmpd 27, N-(3-chloro-5-(2,6-dioxopiperidin-3-ylamino)phenyl)-2-(4-(2-(4-(7-(6-cyano-5-(trifluoromethyl)pyridin-3-yl)-8-oxo-6-thioxo-5,7-diazaspiro[3.4]octan-5-yl)-2-ethylphenoxy)ethyl)piperidin-1-yl)acetamide], the “Y (lowest measured AR level normalized to DMSO control)” value is on record as “* (0<Y<=25%)” and the DC50 was below 100 nM.

As to `CCc1cc(N2C(=S)N(c3ccc(C#N)c(C(F)(F)F)c3)C(=O)C23CCC3)ccc1OCCC1CCN(CC(=O)Nc2cc(Cl)cc(NC3CCC(=O)NC3=O)c2)CC1` (stereo not drawn) [Cmpd 28, N-(3-chloro-5-(2,6-dioxopiperidin-3-ylamino)phenyl)-2-(4-(2-(4-(7-(4-cyano-3-(trifluoromethyl)phenyl)-8-oxo-6-thioxo-5,7-diazaspiro[3.4]octan-5-yl)-2-ethylphenoxy)ethyl)piperidin-1-yl)acetamide], the “Y (lowest measured AR level normalized to DMSO control)” value was “* (0<Y<=25%)” and the half-maximal degradation concentration (DC50) is 100 to 500 nM.

`CCc1cc(N2C(=S)N(c3cnc(C#N)c(C(F)(F)F)c3)C(=O)C23CCC3)ccc1OCCC1CCN(CC(=O)Nc2cccc(NC3CCC(=O)NC3=O)c2)CC1` (stereo not drawn) [Cmpd 29, 2-(4-(2-(4-(7-(6-cyano-5-(trifluoromethyl)pyridin-3-yl)-8-oxo-6-thioxo-5,7-diazaspiro[3.4]octan-5-yl)-2-ethylphenoxy)ethyl)piperidin-1-yl)-N-(3-(2,6-dioxopiperidin-3-ylamino)phenyl)acetamide]: the “Y (lowest measured AR level normalized to DMSO control)” value is “* (0<Y<=25%)” and the DC50 was below 100 nM.

Take `CC(F)(F)c1cc(N2C(=S)N(c3ccc(C#N)c(C(F)(F)F)c3)C(=O)C2(C)C)ccc1OCCC1CCN(CC(=O)Nc2cc(Cl)cc(NC3CCC(=O)NC3=O)c2)CC1` (stereo not drawn) [Cmpd 30, N-(3-chloro-5-(2,6-dioxopiperidin-3-ylamino)phenyl)-2-(4-(2-(4-(3-(4-cyano-3-(trifluoromethyl)phenyl)-5,5-dimethyl-4-oxo-2-thioxoimidazolidin-1-yl)-2-(1,1-difluoroethyl)phenoxy)ethyl)piperidin-1-yl)acetamide]: the “Y (lowest measured AR level normalized to DMSO control)” value is listed as “* (0<Y<=25%)” and the DC50 lay within 100 to 500 nM.

With `CCc1cc(N2C(=S)N(c3ccc(C#N)c(C(F)(F)F)c3)C(=O)C23CCC3)ccc1OCCC1CCN([C@H](C)C(=O)Nc2cc(Cl)cc(NC3CCC(=O)NC3=O)c2)CC1` (stereo partly drawn) [Cmpd 31, (2R)-N-(3-chloro-5-(2,6-dioxopiperidin-3-ylamino)phenyl)-2-(4-(2-(4-(7-(4-cyano-3-(trifluoromethyl)phenyl)-8-oxo-6-thioxo-5,7-diazaspiro[3.4]octan-5-yl)-2-ethylphenoxy)ethyl)piperidin-1-yl)propanamide], the “Y (lowest measured AR level normalized to DMSO control)” value was “* (0<Y<=25%)” and the DC50 was 100 to 500 nM.

Take `CCc1cc(N2C(=S)N(c3ccc(C#N)c(C(F)(F)F)c3)C(=O)C23CCC3)ccc1OCCC1CCN([C@@H](C)C(=O)Nc2cc(Cl)cc(NC3CCC(=O)NC3=O)c2)CC1` (stereo partly drawn) [Cmpd 32, (2S)-N-(3-chloro-5-(2,6-dioxopiperidin-3-ylamino)phenyl)-2-(4-(2-(4-(7-(4-cyano-3-(trifluoromethyl)phenyl)-8-oxo-6-thioxo-5,7-diazaspiro[3.4]octan-5-yl)-2-ethylphenoxy)ethyl)piperidin-1-yl)propanamide]: the “Y (lowest measured AR level normalized to DMSO control)” value is given as “** (25%<Y<=35%)” and the DC50 lay within 100 to 500 nM.

As to `CC1(C)C(=O)N(c2ccc(C#N)c(C(F)(F)F)c2)C(=S)N1c1ccc(OCCC2CCN(CC(=O)Nc3cc(Cl)cc(NC4CCC(=O)NC4=O)c3)CC2)c(CCF)c1` (stereo not drawn) [Cmpd 33, N-(3-chloro-5-(2,6-dioxopiperidin-3-ylamino)phenyl)-2-(4-(2-(4-(3-(4-cyano-3-(trifluoromethyl)phenyl)-5,5-dimethyl-4-oxo-2-thioxoimidazolidin-1-yl)-2-(2-fluoroethyl)phenoxy)ethyl)piperidin-1-yl)acetamide], the “Y (lowest measured AR level normalized to DMSO control)” value is “* (0<Y<=25%)” and the DC50 was below 100 nM.

For `CCc1cc(N2C(=S)N(c3cnc(C#N)c(C(F)(F)F)c3)C(=O)C2(C)C)ccc1OCCC1CCN(C2(C(=O)Nc3cc(Cl)cc(NC4CCC(=O)NC4=O)c3)CC2)CC1` (stereo not drawn) [Cmpd 34, N-(3-chloro-5-(2,6-dioxopiperidin-3-ylamino)phenyl)-1-(4-(2-(4-(3-(6-cyano-5-(trifluoromethyl)pyridin-3-yl)-5,5-dimethyl-4-oxo-2-thioxoimidazolidin-1-yl)-2-ethylphenoxy)ethyl)piperidin-1-yl)cyclopropanecarboxamide], the “Y (lowest measured AR level normalized to DMSO control)” value is reported as “*** (35%<Y<50%)” and the DC50 was in the range of 500 to 1000 nM.

For `CCc1cc(N2C(=S)N(c3cnc(C#N)c(C(F)(F)F)c3)C(=O)C23CCC3)ccc1OCCC1CCN([C@@H](C)C(=O)Nc2cc(Cl)cc(NC3CCC(=O)NC3=O)c2)CC1` (stereo partly drawn) [Cmpd 35, (2S)-N-(3-chloro-5-(2,6-dioxopiperidin-3-ylamino)phenyl)-2-(4-(2-(4-(7-(6-cyano-5-(trifluoromethyl)pyridin-3-yl)-8-oxo-6-thioxo-5,7-diazaspiro[3.4]octan-5-yl)-2-ethylphenoxy)ethyl)piperidin-1-yl)propanamide], the “Y (lowest measured AR level normalized to DMSO control)” value is “* (0<Y<=25%)” and the DC50 fell in the range of 100 to 500 nM.

As to `CCc1cc(N2C(=S)N(c3cnc(C#N)c(C(F)(F)F)c3)C(=O)C23CCC3)ccc1OCCC1CCN([C@H](C)C(=O)Nc2cc(Cl)cc(NC3CCC(=O)NC3=O)c2)CC1` (stereo partly drawn) [Cmpd 36, (2R)-N-(3-chloro-5-(2,6-dioxopiperidin-3-ylamino)phenyl)-2-(4-(2-(4-(7-(6-cyano-5-(trifluoromethyl)pyridin-3-yl)-8-oxo-6-thioxo-5,7-diazaspiro[3.4]octan-5-yl)-2-ethylphenoxy)ethyl)piperidin-1-yl)propanamide], the “Y (lowest measured AR level normalized to DMSO control)” value is on record as “* (0<Y<=25%)” and the DC50 fell in the range of 100 to 500 nM.
